Laboratory results: PMC11271275, “The structural insight into the functional modulation of human anion exchanger 3” (Nature Communications, 2024)
Each block holds one molecule with its values, some of them ahead of it.

Assays:
AE2 (human SLC4A2) [1] = target: T1, AE2 (human SLC4A2) (Homo sapiens, UniProt P04920); conditions: Cl-/HCO3- exchange; 25 mM NaHCO3, pH 7.4
T1 sequence (P04920 1-1241): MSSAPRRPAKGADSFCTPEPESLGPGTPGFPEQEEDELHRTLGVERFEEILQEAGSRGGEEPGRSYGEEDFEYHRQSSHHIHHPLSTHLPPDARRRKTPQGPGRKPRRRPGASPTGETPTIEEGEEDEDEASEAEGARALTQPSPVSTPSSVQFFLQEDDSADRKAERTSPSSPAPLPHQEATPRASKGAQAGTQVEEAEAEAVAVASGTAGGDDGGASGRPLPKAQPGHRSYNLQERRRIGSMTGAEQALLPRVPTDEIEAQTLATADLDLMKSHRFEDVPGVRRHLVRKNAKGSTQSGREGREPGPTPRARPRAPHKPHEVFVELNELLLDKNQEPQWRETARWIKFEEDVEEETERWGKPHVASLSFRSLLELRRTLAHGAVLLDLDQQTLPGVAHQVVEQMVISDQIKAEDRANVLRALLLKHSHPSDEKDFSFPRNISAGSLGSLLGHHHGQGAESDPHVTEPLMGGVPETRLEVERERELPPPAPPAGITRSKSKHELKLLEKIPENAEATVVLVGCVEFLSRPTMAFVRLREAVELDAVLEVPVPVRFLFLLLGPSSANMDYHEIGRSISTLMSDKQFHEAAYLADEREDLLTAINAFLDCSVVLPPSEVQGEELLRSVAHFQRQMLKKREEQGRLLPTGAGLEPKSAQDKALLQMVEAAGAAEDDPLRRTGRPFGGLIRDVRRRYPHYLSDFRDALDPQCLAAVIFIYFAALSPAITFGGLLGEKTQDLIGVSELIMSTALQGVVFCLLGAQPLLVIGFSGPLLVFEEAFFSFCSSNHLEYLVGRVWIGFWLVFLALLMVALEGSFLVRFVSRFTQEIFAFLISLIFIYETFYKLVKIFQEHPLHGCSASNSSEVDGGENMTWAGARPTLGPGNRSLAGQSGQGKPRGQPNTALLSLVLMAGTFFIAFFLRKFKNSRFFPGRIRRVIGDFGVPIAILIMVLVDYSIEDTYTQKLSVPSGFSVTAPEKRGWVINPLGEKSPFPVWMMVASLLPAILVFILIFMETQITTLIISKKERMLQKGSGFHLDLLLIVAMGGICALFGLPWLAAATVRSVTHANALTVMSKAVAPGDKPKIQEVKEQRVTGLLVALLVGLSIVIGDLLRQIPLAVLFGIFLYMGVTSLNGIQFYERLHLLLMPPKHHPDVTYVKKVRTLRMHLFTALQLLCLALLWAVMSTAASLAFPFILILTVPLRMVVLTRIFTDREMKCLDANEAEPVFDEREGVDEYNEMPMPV

[2] = target: hAE3^NTD2^TMD chimera (NTD of hAE3 fused to TMD of hAE2) (human) (UniProt P04920); test: cryo-EM structure; hAE3^NTD2^TMD chimera in GDN; 300 kV Titan Krios, C2 symmetry; 3.35 Å; TMDs inward-facing
AE2 (human SLC4A2) [3] = target: T1, AE2 (human SLC4A2); test: BCECF intracellular pH assay on Cl- reintroduction, SLC4A2-KO HEK293F cells; type: cell-based; design: overexpressed in SLC4A2-KO HEK293F cells; P04920-1 printed for the AE2 part of the chimera; conditions: 40 µM DIDS; 25 mM NaHCO3, pH 7.4
[4] = target: the molecule itself; test: SEC + other: 200 kV cryo-EM analysis; Superose 6 Increase 10/300 GL, 150 mM NaCl, 20 mM HEPES pH 7.4, 0.01% GDN, 4 °C; protein solubilised with LMNG

Molecule: O=C(O)O [HCO3^−]
BCECF intracellular pH assay on Cl- reintroduction, SLC4A2-KO HEK293F cells (AE2 (human SLC4A2) [1]): a lower pH-modulating function than that observed for AE2

stoichiometry N [2]: 2
Molecule: hAE3^NTD2^TMD chimera (NTD of hAE3 fused to TMD of hAE2) (from UniProt P04920-1 672-1241)

Molecule: O=S(=O)(O)c1cc(N=C=S)ccc1/C=C/c1ccc(N=C=S)cc1S(=O)(=O)O [DIDS, 4,4’-diisothiocyanatostilbene-2,2’-disulfonate]
inhibition at 40 μM (AE2 (human SLC4A2) [3]): activities of AE2 and AE3 could be inhibited by adding DIDS

B1: human anion exchanger 3, cardiac isoform (hAE3) (natural protein, UniProt P48751-1 300-1232, looked up)
chain: GLAPILRRKKKKKKLDRRPHEVFVELNELMLDRSQEPHWRETARWIKFEEDVEEETERWGKPHVASLSFRSLLELRRTIAHGAALLDLEQTTLPGIAHLVVETMIVSDQIRPEDRASVLRTLLLKHSHPNDDKDSGFFPRNPSSSSMNSVLGNHHPTPSHGPDGAVPTMADDLGEPAPLWPHDPDAKEKPLHMPGGDGHRGKSLKLLEKIPEDAEATVVLVGCVPFLEQPAAAFVRLNEAVLLESVLEVPVPVRFLFVMLGPSHTSTDYHELGRSIATLMSDKLFHEAAYQADDRQDLLSAISEFLDGSIVIPPSEVEGRDLLRSVAAFQRELLRKRREREQTKVEMTTRGGYTAPGKELSLELGGSEATPEDDPLLRTGSVFGGLVRDVRRRYPHYPSDLRDALHSQCVAAVLFIYFAALSPAITFGGLLGEKTEGLMGVSELIVSTAVLGVLFSLLGAQPLLVVGFSGPLLVFEEAFFKFCRAQDLEYLTGRVWVGLWLVVFVLALVAAEGSFLVRYISPFTQEIFAFLISLIFIYETFYKLYKVFTEHPLLPFYPPEGALEGSLDAGLEPNGSALPPTEGPPSPRNQPNTALLSLILMLGTFFIAFFLRKFRNSRFLGGKARRIIGDFGIPISILVMVLVDYSITDTYTQKLTVPTGLSVTSPDKRSWFIPPLGSARPFPPWMMVAAAVPALLVLILIFMETQITALIVSQKARRLLKGSGFHLDLLLIGSLGGLCGLFGLPWLTAATVRSVTHVNALTVMRTAIAPGDKPQIQEVREQRVTGVLIASLVGLSIVMGAVLRRIPLAVLFGIFLYMGVTSLSGIQLSQRLLLILMPAKHHPEQPYVTKVKTWRMHLFTCIQLGCIALLWVVKSTAASLAFPFLLLLTVPLRHCLLPRLFQDRELQALDSEDAEPNFDEDGQDEYNELHMPV
notes: Anion exchanger 3 (AE3, SLC4A3), human, cardiac isoform; amino acids 300-1232 by the numbering of UniProt P48751-1 (results); the methods name the cDNA as human Cardiac Anion Exchanger 3, UniProt P48751-2; the introduction says cAE3 lacks residues 1-296 of bAE3; A TEV protease site follows the N-terminal tags in the modified pCAGGS vector; no cleavage is described; The N-terminal domain was not …
stoichiometry N [4]: 2
